According to patent US10308620B2, “Muscarinic M1 receptor positive allosteric modulators” (SUVEN LIFE SCIENCES LIMITED, priority 2015, dated 2019):

Key:
[1] = biological target: recombinant human Muscarinic M1 receptor (Homo sapiens (Human), UniProt P11229); test: Allosteric potency EC50, CHO cells with pCRE-Luc reporter, in presence of EC20 of acetylcholine; type: cell-based; conditions: 4 hours
Procedure, shortened: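 Stable CHO cells carrying human M1 receptor and a pCRE-Luc reporter, serum-starved overnight, then exposed to rising compound concentrations plus EC20 acetylcholine in OptiMEM for 4 h at 37 °C. Luciferase read after lysis. EC50 is the concentration giving 50% luciferase stimulation with EC20 acetylcholine present.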

[2] = tested on: rats; test: Contextual fear conditioning task (scopolamine induced memory deficit); type: in vivo, rat; conditions: scopolamine 0.3 mg/kg, s.c.; FIG. 3
Procedure: Contextual Fear Conditioning Task
Experiment was carried out over a period of two days. On day 1, rats were placed in the operant behavior chamber and allowed to acclimatize for 2 minutes. Rats received an unavoidable foot shock (unconditioned stimulus (US): electric shock of 0.5-0.7 mA for 3 sec). Following a 1 minute interval, shocks were repeated to deliver a total of three US. Rats were administered with vehicle or test compound post training. Scopolamine (0.3 mg/kg, s.c.) was administered 120 minutes after training.
On day 2, rats were placed in the operant behavior chamber and total freezing time was scored for a period of 5 minutes.

[3] = Rodent brain penetration study; type: in vivo; conditions: rat, oral, 3 mg/kg, p.o., male Wistar rats, read-out: Single dose Rat Brain Penetration (Cb/Cp)
Procedure: Rodent Brain Penetration Study
Male Wistar rats (260±40 grams) were used as experimental animals. Three animals were housed in each cage. Animals were given water and food ad libitum throughout the experiment and maintained on a 12 hours light/dark cycle.
Brain penetration was determined in discrete manner in rats. One day prior to dosing day, male Wistar rats were acclimatized and randomly grouped according to their weight. At each time point (0.50, 1 and 2 hours) n=3 animals were used.
The test compounds were suitably preformulated and administered orally at (free base equivalent) 3 mg/kg. Blood samples were removed via cardiac puncture by using isoflurane anesthesia. The animals were sacrificed to collect brain tissue. Plasma was separated and brain samples were homogenized and stored frozen at −20° C. until analysis. The concentrations of the test compounds in plasma and brain were determined using LC-MS/MS method.
The test compounds were quantified in plasma and brain homogenate by qualified LC-MS/MS method using suitable extraction technique. The test compounds were quantified in the calibration range of 1-500 ng/mL in plasma and brain homogenate. Study samples were analyzed using calibration samples in the batch and quality control samples spread across the batch. Extent of brain-plasma ratio was calculated (Cb/Cp).

[4] = tested on: Male Wistar rats; test: Object recognition task model (time induced memory deficit); type: in vivo, rat
Procedure: Object Recognition Task Model
The cognition enhancing properties of compounds of this invention were estimated by using this model.
Male Wistar rats (8-10 weeks old) were used as experimental animals. Four animals were housed in each cage. Animals were kept on 20% food deprivation from a day prior to experimentation. Water was provided ad libitum throughout the experiment. Animals were maintained on a 12 hours light/dark cycle in temperature and humidity controlled room. The experiment was carried out in an open field made up of acrylic. Rats were habituated to individual arenas (open field) for 1 hour in the absence of any objects on day 1.
One group of 12 rats received vehicle and another set of animals received test compounds or test compounds and Donepezil, before the familiar (T1) and choice (T2) trials. During the familiarization phase, (T1), the rats were placed individually in the arena for 3 minutes, in which two identical objects (a1 and a2) were positioned 10 cm from the wall. 24 hours after T1, trial for long-term memory test was performed. The same rats were placed in the same arena as they were placed in T1 trial. During the choice phase (T2) rats were allowed to explore the arena for 3 minutes in presence of a copy of familiar object (a3) and one novel object (b). During the T1 and T2 trial, explorations of each object (defined as sniffing, licking, chewing or having moving vibrissae whilst directing the nose towards the object at a distance of less than 1 cm) were recorded using stopwatch.
T1 is the total time spent exploring the familiar objects (a1+a2).
T2 is the total time spent exploring the familiar object and novel object (a3+b). Discriminative index=Time spent with novel object/(time spent with novel and familiar object).
The object recognition test was performed as described in Behavioural Brain Research, 1988, 31, 47-59.

[5] = 1 mg/kg, p.o., choice trial 24 hours after T1

Chain of recombinant human Muscarinic M1 receptor (P11229 whole entry): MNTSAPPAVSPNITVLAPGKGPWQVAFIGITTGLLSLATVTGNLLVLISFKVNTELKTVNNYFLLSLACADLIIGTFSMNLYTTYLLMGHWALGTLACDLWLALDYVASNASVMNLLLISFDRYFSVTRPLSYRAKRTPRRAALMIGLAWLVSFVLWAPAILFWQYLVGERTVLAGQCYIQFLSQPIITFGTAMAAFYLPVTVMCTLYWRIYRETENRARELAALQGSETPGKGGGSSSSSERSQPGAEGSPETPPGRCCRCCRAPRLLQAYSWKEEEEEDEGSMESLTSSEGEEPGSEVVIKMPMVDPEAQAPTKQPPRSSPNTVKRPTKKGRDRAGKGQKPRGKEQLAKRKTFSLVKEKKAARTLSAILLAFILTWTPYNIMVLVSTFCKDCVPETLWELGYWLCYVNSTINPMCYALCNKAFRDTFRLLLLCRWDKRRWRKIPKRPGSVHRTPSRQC

EC50 [1]: 331 nM
Kp [3]: 2.27 ± 0.64
Compound: O=C(N[C@H]1CCCC[C@@H]1O)C1=CN(Cc2cccc(F)c2F)c2ccccc2O1 [Example 18, N-(cis-1S, 2S-2-Hydroxycyclohexyl)-4-(2,3-difluorobenzyl)-4H-benzo[1,4]oxazine-2-carboxamide]
Effect on scopolamine induced memory deficit (freezing time) [2]: reversed the scopolamine induced memory deficit
Inference ([4]; 1 mg/kg, p.o.): Active
Exploration time mean ± S.E.M, Familiar object [4, 5]: 8.74 ± 1.49 s
Exploration time mean ± S.E.M, Novel object [4, 5]: 16.47 ± 1.82 s
Procognitive effects ([4]; in combination with donepezil, FIGS. 1 and 2): better than the either treatment
